This note sets out measurements from paper PMC3883290, “Functional characterization in Xenopus oocytes of Na^+ transport systems from durum wheat reveals diversity among two HKT1;4 transporters” (Journal of Experimental Botany, 2013).

This experiment has as its target T1, TdHKT1;4-2 (Triticum turgidum, UniProt U5YMY4).
T1 construct: full-length coding region (ORF 1686 bp, 562 residues as printed) in pGEMXho, cRNA expressed in Xenopus laevis oocytes
T1 sequence (U5YMY4 1-561): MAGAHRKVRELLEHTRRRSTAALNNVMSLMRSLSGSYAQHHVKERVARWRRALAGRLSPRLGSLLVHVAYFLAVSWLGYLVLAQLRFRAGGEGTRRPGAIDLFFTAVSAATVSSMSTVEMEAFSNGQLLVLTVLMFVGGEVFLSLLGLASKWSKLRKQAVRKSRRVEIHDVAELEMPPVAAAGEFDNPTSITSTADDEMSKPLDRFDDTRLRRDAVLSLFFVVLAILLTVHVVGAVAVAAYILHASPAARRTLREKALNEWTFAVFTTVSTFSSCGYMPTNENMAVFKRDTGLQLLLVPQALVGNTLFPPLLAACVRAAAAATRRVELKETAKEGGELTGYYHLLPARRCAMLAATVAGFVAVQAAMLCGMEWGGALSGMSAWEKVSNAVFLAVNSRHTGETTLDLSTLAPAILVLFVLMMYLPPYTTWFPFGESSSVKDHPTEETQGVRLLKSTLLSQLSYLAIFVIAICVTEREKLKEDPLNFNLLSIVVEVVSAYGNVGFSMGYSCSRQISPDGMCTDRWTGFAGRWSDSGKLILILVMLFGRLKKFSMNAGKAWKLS
The experiment in a line: two-electrode voltage clamp, Xenopus oocytes. The format is cell-based. The conditions noted are these: 500 µM quinine; 1 mM external Na+ (glutamate salt); pH 5.5; inward and outward currents. (In general: In two-electrode clamp one electrode senses voltage and the other passes current.)

In the case of `C=C[C@H]1CN2CC[C@H]1C[C@H]2[C@H](O)c1ccnc2ccc(OC)cc12` [quinine], the “% decrease of currents at 500 μM” value is given as ~ 25%.
